Results: patent US8188111B2, “Amide and carbamate derivatives of alkyl substituted N-[4-(4-amino-1H-imidazo[4,5-c]quinolin-1-yl)butyI]methanesulfonamides and methods” (3M Innovative Properties Company, priority 2005, dated 2012)

First: CCCOC(=O)Nc1nc2ccccc2c2c1nc(CC)n2CCCCNS(C)(=O)=O [Example 6, Propyl 2-Ethyl-1-{4-[(methylsulfonyl)amino]butyl}-1H-imidazo[4,5-c]quinolin-4-ylcarbamate]
Second: CCCCOC(=O)Nc1nc2ccccc2c2c1nc(CC)n2CCCCNS(C)(=O)=O [Example 7, Butyl 2-Ethyl-1-{4-[(methylsulfonyl)amino]butyl}-1H-imidazo[4,5-c]quinolin-4-ylcarbamate]
The melting point of the first is lower: 155 to 157 °C for the first, 164 to 166 °C for the second.

First: CCc1nc2c(NC(=O)C(C)C)nc3ccccc3c2n1CCCCNS(C)(=O)=O [Example 4, N-(2-Ethyl-1-{4-[(methylsulfonyl)amino]butyl}-1H-imidazo[4,5-c]quinolin-4-yl)-2-methylpropanamide]
Second: CCc1nc2c(NC(C)=O)nc3ccccc3c2n1CCCCNS(C)(=O)=O [Example 1, N-(2-Ethyl-1-{4-[(methylsulfonyl)amino]butyl}-1H-imidazo[4,5-c]quinolin-4-yl)acetamide]
The melting point of the first is higher: 122 to 124 °C for the first, 90 to 91 °C for the second.

Compared with `CCOC(=O)Nc1nc2ccccc2c2c1nc(CC)n2CCCCNS(C)(=O)=O` [Example 3, Ethyl 2-Ethyl-1-{4-[(methylsulfonyl)amino]butyl}-1H-imidazo[4,5-c]quinolin-4-ylcarbamate], `CCc1nc2c(NC(=O)C(C)(C)C)nc3ccccc3c2n1CCCCNS(C)(=O)=O` [Example 5, N-(2-Ethyl-1-{4-[(methylsulfonyl)amino]butyl}-1H-imidazo[4,5-c]quinolin-4-yl)-2,2-dimethylpropanamide] is higher in melting point: 185 to 187 °C for the first, 220 to 221 °C for the second.

For `CCc1nc2c(NC(=O)c3ccccc3)nc3ccccc3c2n1CCCCNS(C)(=O)=O` [Example 2, N-(2-Ethyl-1-{4-[(methylsulfonyl)amino]butyl}-1H-imidazo[4,5-c]quinolin-4-yl)benzamide], the melting point was 249 to 250 °C.
